Series [1] deals with mouse model of BLM-induced lung injury. Put plainly: Serum ALP and LDH levels. Particulars: mice. The class given is in vivo. An excerpt: Alkaline phosphatase (ALP) level and lactate dehydrogenase (LDH) level. An automatic blood indicator analyzer and related kits (alkaline phosphatase assay kit and lactate dehydrogenase assay kit) were used to measure related indicators.
Serum lactate dehydrogenase (LDH) and alkaline phosphatase (ALP) are important markers of inflammatory response of lung injury.

The subject of a further series is primary lung fibroblasts. Put plainly: Activation of myofibroblasts in primary lung fibroblasts isolated from mice. Particulars: primary lung fibroblasts isolated from mice of the experimental groups. The class given is cell-based, mouse.
Series [2] has as its system mouse model of BLM-induced lung injury. Put plainly: Total number of cells and protein concentration in BALF. The class given is in vivo. Particulars: mice; 30, 60, 90 mg/kg oral qd. Here is the method:
1. The determination of the total number of cells in BALF. The collected BALF was centrifuged at 1000 rpm at 4° C. for 10 minutes, and 25× Cocktail was added to the supernatant and stored at −80° C. for protein concentration detection and subsequent cytokine determination. The cell pellet was resuspend in 50 μL of saline. The total number of cells in BALF was determined with a cell counting instrument.
2. Determination of protein concentration. In the experiment, the BCA protein concentration determination kit (Beyotime) was used to determine the concentration of total protein in BALF. The experimental steps are as follows:
a. 0.8 ml protein standard formulation solution was added to a tube of protein standard (20 mg BSA), dissolved and mixed thoroughly to prepare a protein standard solution at 25 mg/ml. After preparation, the protein standard solution can be used immediately and stored at −20° C.
b. An appropriate amount of 25 mg/ml of protein standard solution was taken and diluted to the target concentration of 0.5 mg/ml. Note that the protein sample and the standard should be diluted with the same solution, or the standard can be diluted with 0.9% NaCl or PBS. […]
d. The absorbance in the wavelength range of 540-595 nm was measured or a microplate reader was used to measure A562.
e. The protein concentration in the sample was calculated according to the sample volume used and standard curve.

Series [3] has as its system lung fibroblast cell line MRC-5. Put plainly: Cytotoxic activity test (MTS), MRC-5. The class given is cell-based, human. The note with it: 10 μM. The protocol: Experimental objective: The cytotoxic activity of compound S15 on bronchial epithelial cell line Beas-2B and lung fibroblast cell line MRC-5 was tested.
1) The human bronchial epithelial cell line Beas-2B and the human embryonic lung fibroblast cell line MRC-5 were collected, and inoculated at a certain density (about 5000-10000 cells) on a 96-well plate (the edge wells were filled with sterile water or PBS). A control was set on each plate (100 μL of culture medium was added);
2) The plate was incubated overnight at 37° C., 5% CO2. The plate was turned upside down and observed under the microscope.
3) The solutions of different concentrations of the compounds to be tested were added to each well, and a control well (culture medium and MTS solution with cells but no drug) and a blank well (without cells, medium and MTS solution) were set, 3 to 5 repetition wells were set for each group. Incubation was performed at 37° C. for 48-72 hours.
4) 10 μL/well of MTS/PMS (20:1, Promega Corp) solution was added to each well containing 100 μL of culture medium, and then the plate was gently shaken. The plate was incubated at 37° C. for 2 to 4 hours.
5) M5 microplate reader (Molecular Device, USA) was used to measure the absorbance of the solution at 490 nm. […]

In another series the target is C-Kit (Homo sapiens (Human), UniProt P10721). Description: Enzyme selectivity test (ELISA), C-Kit. The class given is biochemical. The protocol:
1) Enzyme reaction substrate Poly(Glu, Tyr) 4:1 was diluted to 20 μg/mL with potassium-free PBS (10 mM sodium phosphate buffer, 150 mM NaCl, pH 7.2-7.4), and the microtiter plate was coated with 125 μL/well and placed at 37° C. for 12-16 hours of reaction. The liquid in the well was discard. The plate was washed three times with T-PBS (potassium-free PBS containing 0.1% Tween-20, 200 μL/well), 5 minutes each time. The ELISA plate was dried in an oven at 37° C. for 1 to 2 hours.
2) Reaction buffer (50 mM HEPES pH 7.4, 50 mM MgCl2, 0.5 mM MnCl2, 0.2 mM Na3VO4, 1 mM DTT) diluted ATP solution (49 μL) was added to each well, 1 μL of the compound to be tested was added to each well, and then 50 μL of DDR2 kinase domain recombinant protein diluted in the reaction buffer was added to start the reaction. Two control wells without ATP were set in each experiment. The plate placed on a shaker (100 rpm) at 37° C. for 1 hour of reaction. The liquid in the well was discarded and the plate was washed three times with T-PBS.
3) Antibody PY99 dilution solution (the antibody was diluted 1:500 with T-PBS containing BSA 5 mg/mL) was added at 100 μL/well, and shaken on a shaker at 37° C. for 0.5 hour of reaction. The liquid in the well was discarded and the plate was washed three times with T-PBS.
4) Horseradish peroxidase labeled goat anti-murine secondary antibody dilution solution (the antibody is diluted 1:2000 with T-PBS containing BSA 5 mg/ml) was added at 100 μL/well, and shaken on a shaker at 37° C. for 0.5 hour of reaction. The liquid in the well was discarded and the plate was washed three times with T-PBS.
5) 2 mg/ml of OPD color developing solution [diluted with 0.1 M citric acid-sodium citrate buffer (pH=5.4) containing 0.03% H2O2] was added at 100 μL/well and reacted for 1 to 10 minutes at 25° C. in the dark.
6) 2M H2SO4 was added at 50 μL/well to stop the reaction, and a tunable wavelength microplate reader VERSAmax was used for reading at a wavelength of 490 nm.
The IC50 value was obtained by four-parameter regression using the software that came with the microplate reader. […]
In general terms: An ELISA detects its analyte on a solid surface through an enzyme-linked reagent.

A value given as a limit tells only on which side of the number the result lay.

Data on one molecule can be found in patent publication US11655239B2 (SHANGHAI INSTITUTE OF MATERIAL MEDICA, CHINESE ACADEMY OF …, priority 2019, dated 2023).

C-Kit, sequence (P10721 26-976): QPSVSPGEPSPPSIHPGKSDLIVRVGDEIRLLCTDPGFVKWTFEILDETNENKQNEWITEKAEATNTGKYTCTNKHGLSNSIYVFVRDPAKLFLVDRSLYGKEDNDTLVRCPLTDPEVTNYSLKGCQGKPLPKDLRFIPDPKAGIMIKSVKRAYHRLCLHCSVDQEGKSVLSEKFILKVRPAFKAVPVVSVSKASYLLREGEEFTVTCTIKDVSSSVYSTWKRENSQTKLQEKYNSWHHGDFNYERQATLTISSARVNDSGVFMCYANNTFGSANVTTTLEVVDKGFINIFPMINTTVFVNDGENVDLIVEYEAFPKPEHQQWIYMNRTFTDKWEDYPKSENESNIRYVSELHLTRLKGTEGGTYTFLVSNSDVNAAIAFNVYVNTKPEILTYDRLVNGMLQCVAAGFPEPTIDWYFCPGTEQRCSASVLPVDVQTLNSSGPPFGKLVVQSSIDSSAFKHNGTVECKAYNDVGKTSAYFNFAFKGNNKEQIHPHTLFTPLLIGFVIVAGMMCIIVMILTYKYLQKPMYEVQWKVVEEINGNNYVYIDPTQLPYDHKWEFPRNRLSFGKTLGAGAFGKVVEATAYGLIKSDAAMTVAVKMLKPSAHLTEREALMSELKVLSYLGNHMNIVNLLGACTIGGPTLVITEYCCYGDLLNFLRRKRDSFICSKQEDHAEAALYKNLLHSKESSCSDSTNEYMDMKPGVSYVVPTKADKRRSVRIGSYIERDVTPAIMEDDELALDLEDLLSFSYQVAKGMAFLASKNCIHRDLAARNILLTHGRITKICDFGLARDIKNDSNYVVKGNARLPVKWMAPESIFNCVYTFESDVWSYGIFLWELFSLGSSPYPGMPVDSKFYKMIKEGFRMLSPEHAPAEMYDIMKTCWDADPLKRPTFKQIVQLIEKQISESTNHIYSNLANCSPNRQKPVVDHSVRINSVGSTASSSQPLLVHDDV

In general, IC50 refers to the concentration needed to halve the response being measured. The low end stands for greater potency, the high end for weaker potency. Take `O=C(Nc1cccc(C(F)(F)F)c1)c1ccc(C2CC2)c(-c2ccc3nc(Nc4cnn(C5CC5)c4)ncc3c2)c1` [Compound S15, 4-cyclopropyl-3-(2-((1-cyclopropyl-1H-pyrazol-4-yl)amino)quinazolin-6-yl)-N-(3-(trifluoromethyl)phenyl)benzamide]: in series [1], the ALP serum level result was “inhibit the level of ALP more effectively than nintedanib”. Further, the LDH serum level entry in series [1] (90 mg/kg high dose group) is recorded as “effectively inhibit serum LDH level”. Moreover, the activation of myofibroblasts entry with primary lung fibroblasts was “inhibit the activation of myofibroblasts in a dose-dependent manner”. For the same molecule, in series [2], the “protein concentration in BALF” value was “reduce the number of inflammatory cells and the concentration of related proteins in a dose-dependent manner”; the “total number of inflammatory cells in BALF” value is “reduce the number of inflammatory cells and the concentration of related proteins in a dose-dependent manner”. In addition, the “cytotoxic activity on MRC-5” value in series [3] is on record as “almost no toxicity”. For the same molecule, the IC50 against C-Kit was above 1000 nM.
